Data reported in ChEMBL document CHEMBL3046554, “Investigating the mode of action of sulfoxaflor: a fourth-generation neonicotinoid” (Pest Manag Sci, 2013).
Converted amounts (≈) assume the structure as drawn. The source made the active and inactive calls. The rule behind the calls is not given here.

How the values were obtained:
Myzus persicae [1] = assay: whole plant or invertebrate; type: functional; conditions: 4106A, in Brassica rapa, 72 h
Description: Insecticidal activity against Myzus persicae 4106A (green peach aphid) fed on compound treated chinese cabbage discs after 72 hr

Myzus persicae [2] = assay: Insecticidal activity against neonicotinoid-resistant Myzus persicae FRC-P (green peach aphid) fed on compound treated chinese cabbage discs after 72 hr; type: functional; conditions: in Brassica rapa
Myzus persicae [3] = assay: Displacement of [3H]-methyl-SFX from nAChR in Myzus persicae (green peach aphid) 4106A membrane at 1 ppm after 70 min
Myzus persicae [4] = assay: Binding affinity to nAChR in neonicotinoid-resistant Myzus persicae FRC-P (green peach aphid) membrane at 0.05 to 16 nM after 70 min; conditions: tested as the 3H-labelled form
Myzus persicae [5] = assay: Ratio of Ki for [3H]IMD displacement to [3H]-methyl-SFX displacement from nAChR in Myzus persicae 4106A (green peach aphid) membrane; conditions: tested as the 3H-labelled form

Row | Compound | LC50 (Myzus persicae [1]) [µg/mL] | LC50 (Myzus persicae [2]) [µg/mL] | also measured
1 | CC(c1ccc(Cl)nc1)S(C)(=O)=NC#N (stereo unspecified) | 1.4 (≈ 5.74 µM) | – | –
2 | O=[N+]([O-])/N=C1\NCCN1Cc1ccc(Cl)nc1 [IMIDACLOPRID] | 0.1 (≈ 0.391 µM) | 108 (≈ 422 µM) | –
3 | CC[C@H](C)[C@H]1O[C@]2(C=C[C@@H]1C)C[C@@H]1C[C@@H](C/C=C(\C)[C@@H](O[C@H]3C[C@H](OC)[C@@H](O[C@H]4C[C@H](OC)[C@@H](O)[C@H](C)O4)[C@H](C)O3)[C@@H](C)/C=C/C=C3\CO[C@@H]4[C@H](O)C(C)=C[C@@H](C(=O)O1)[C@]34O)O2.CO[C@H]1C[C@H](O[C@H]2[C@H](C)O[C@@H](O[C@@H]3/C(C)=C/C[C@@H]4C[C@@H](C[C@]5(C=C[C@H](C)[C@@H](C(C)C)O5)O4)OC(=O)[C@@H]4C=C(C)[C@@H](O)[C@H]5OC/C(=C\C=C\[C@@H]3C)[C@]54O)C[C@@H]2OC)O[C@@H](C)[C@@H]1O | – | – | Activity (Myzus persicae [3]): -6%
4 | CCC(C)c1cc([N+](=O)[O-])cc([N+](=O)[O-])c1O (stereo unspecified) | – | – | Activity (Myzus persicae [3]): 13%
5 | CNC(=O)c1cc(Cl)cc(C)c1NC(=O)c1cc(Br)nn1-c1ncccc1Cl | – | – | Activity (Myzus persicae [3]): 8%
6 | CCN(Cc1ccc(Cl)nc1)/C(=C/[N+](=O)[O-])NC [NITENPYRAM] | 1.3 (≈ 4.8 µM) | 236 (≈ 872 µM) | –
7 | C[C@@](F)(c1ccc(C(F)(F)F)nc1)S(C)(=O)=NC#N (stereo partly specified) | 4.64 (≈ 15.7 µM) | – | –
8 | CC(C)(c1ccc(C(F)(F)F)nc1)S(C)(=O)=NC#N (stereo unspecified) | 0.45 (≈ 1.54 µM) | – | Activity (Myzus persicae [4]): inactive; Ratio Ki (Myzus persicae [5]): 100
9 | CN1COCN(Cc2cnc(Cl)s2)/C1=N\[N+](=O)[O-] [THIAMETHOXAM] | 0.5 (≈ 1.71 µM) | 108 (≈ 370 µM) | –
10 | CN/C(=N/CC1CCOC1)N[N+](=O)[O-] (stereo unspecified) [DINOTEFURAN] | 10 (≈ 49.5 µM) | 538 (≈ 2660 µM) | –
11 | C/C(=N\C#N)N(C)Cc1ccc(Cl)nc1 [ACETAMIPRID] | 0.6 (≈ 2.69 µM) | 49.3 (≈ 221 µM) | –
12 | CCS(=O)(=NC#N)C(C)(C)c1ccc(C(F)(F)F)nc1 (stereo unspecified) | 20.5 (≈ 67.1 µM) | – | –
13 | CON=CCCC(F)(F)c1ccc(C(C)S(C)(=O)=NC#N)cn1 (stereo unspecified) | > 100 | – | –
14 | C=CCC(F)(F)c1ccc(C(C)S(C)(=O)=NC#N)cn1 (stereo unspecified) | > 100 | – | –
15 | CC1(C)[C@H](/C=C(\Cl)C(F)(F)F)[C@@H]1C(=O)O[C@@H](C#N)c1cccc(Oc2ccccc2)c1 (relative stereo) | – | – | Activity (Myzus persicae [3]): 3%
16 | CN/C(=N\[N+](=O)[O-])NCc1cnc(Cl)s1 [CLOTHIANIDINE] | 0.3 (≈ 1.2 µM) | 904 (≈ 3620 µM) | –
17 | Cc1nc(C(F)(F)F)ccc1CS(C)(=O)=NC#N (stereo unspecified) | > 100 | – | –
18 | CNC(=O)O/N=C/C(C)(C)SC | – | – | Activity (Myzus persicae [3]): 0%
19 | CS(=O)(Cc1cnc(Cl)s1)=NC#N (stereo unspecified) | 14.4 (≈ 61.2 µM) | – | –
20 | CCN(CC)c1nc(C)cc(OP(=S)(OC)OC)n1 | – | – | Activity (Myzus persicae [3]): 2%
21 | N#C/N=C1\SCCN1Cc1ccc(Cl)nc1 [THIACLOPRID] | 0.4 (≈ 1.58 µM) | > 1000 | –
22 | CC(c1ccc(C(F)(F)F)nc1)S(C)(=O)=NC(N)=O (stereo unspecified) | > 100 | – | –
23 | CC(c1ccc(C(F)(F)F)nc1)S(C)(=O)=NC#N (stereo unspecified) [SULFOXAFLOR] | 0.08 (≈ 0.289 µM) | 4.3 (≈ 15.5 µM) | –
24 | N#Cc1nn(-c2c(Cl)cc(C(F)(F)F)cc2Cl)c(N)c1[S+]([O-])C(F)(F)F (stereo unspecified) | – | – | Activity (Myzus persicae [3]): 30%
25 | CS(=O)(Cc1ccc(C(F)(F)Cl)nc1)=NC#N (stereo unspecified) | 9.6 (≈ 34.3 µM) | – | –
26 | CC(c1ccc(C(F)(F)F)nc1)S(C)(=O)=N[N+](=O)[O-] (stereo unspecified) | > 100 | – | –
